How the values were obtained:
[1] = test system: Phosphatidylinositol 4,5-bisphosphate 3-kinase catalytic subunit alpha isoform (Homo sapiens), P42336 [H1047Y]; settings: Compound concentration 1000.0 nM
[2] = target: Angiopoietin-1 receptor (Homo sapiens) (UniProt Q02763); settings: Compound concentration 1000.0 nM
[3] = target: Calcium/calmodulin-dependent protein kinase type 1G (Homo sapiens) (UniProt Q96NX5); settings: Compound concentration 1000.0 nM
[4] = target: Serine/threonine-protein kinase Nek5 (Homo sapiens) (UniProt Q6P3R8); settings: Compound concentration 1000.0 nM
[5] = target: T1, Serine/threonine-protein kinase BRSK2 (Homo sapiens) (UniProt Q8IWQ3); settings: Compound concentration 1000.0 nM
T1 sequence (whole entry): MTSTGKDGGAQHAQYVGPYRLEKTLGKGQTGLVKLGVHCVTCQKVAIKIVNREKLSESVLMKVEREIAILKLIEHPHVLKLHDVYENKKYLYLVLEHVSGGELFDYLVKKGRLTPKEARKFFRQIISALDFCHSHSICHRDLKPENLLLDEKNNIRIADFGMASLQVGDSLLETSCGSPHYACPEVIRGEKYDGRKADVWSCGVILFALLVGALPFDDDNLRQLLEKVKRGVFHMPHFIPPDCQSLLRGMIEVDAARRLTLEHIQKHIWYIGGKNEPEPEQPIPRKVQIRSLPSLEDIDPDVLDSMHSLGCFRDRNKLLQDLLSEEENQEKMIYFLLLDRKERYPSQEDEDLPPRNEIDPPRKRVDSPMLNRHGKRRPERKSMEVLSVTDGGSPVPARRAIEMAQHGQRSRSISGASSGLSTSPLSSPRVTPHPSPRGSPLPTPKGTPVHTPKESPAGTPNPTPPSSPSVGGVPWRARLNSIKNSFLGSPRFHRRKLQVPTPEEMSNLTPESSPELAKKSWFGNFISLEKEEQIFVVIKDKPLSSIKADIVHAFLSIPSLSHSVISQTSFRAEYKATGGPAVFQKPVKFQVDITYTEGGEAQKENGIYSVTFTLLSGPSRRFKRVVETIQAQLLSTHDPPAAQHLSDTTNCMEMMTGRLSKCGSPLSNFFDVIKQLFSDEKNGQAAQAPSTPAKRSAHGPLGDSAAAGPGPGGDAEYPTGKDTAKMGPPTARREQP

[6] = target: Non-receptor tyrosine-protein kinase TYK2 (Homo sapiens) (UniProt P29597); settings: Compound concentration 1000.0 nM
[7] = target: T2, Tyrosine-protein kinase ITK/TSK (Homo sapiens) (UniProt Q08881); settings: Compound concentration 1000.0 nM
T2 sequence (whole entry): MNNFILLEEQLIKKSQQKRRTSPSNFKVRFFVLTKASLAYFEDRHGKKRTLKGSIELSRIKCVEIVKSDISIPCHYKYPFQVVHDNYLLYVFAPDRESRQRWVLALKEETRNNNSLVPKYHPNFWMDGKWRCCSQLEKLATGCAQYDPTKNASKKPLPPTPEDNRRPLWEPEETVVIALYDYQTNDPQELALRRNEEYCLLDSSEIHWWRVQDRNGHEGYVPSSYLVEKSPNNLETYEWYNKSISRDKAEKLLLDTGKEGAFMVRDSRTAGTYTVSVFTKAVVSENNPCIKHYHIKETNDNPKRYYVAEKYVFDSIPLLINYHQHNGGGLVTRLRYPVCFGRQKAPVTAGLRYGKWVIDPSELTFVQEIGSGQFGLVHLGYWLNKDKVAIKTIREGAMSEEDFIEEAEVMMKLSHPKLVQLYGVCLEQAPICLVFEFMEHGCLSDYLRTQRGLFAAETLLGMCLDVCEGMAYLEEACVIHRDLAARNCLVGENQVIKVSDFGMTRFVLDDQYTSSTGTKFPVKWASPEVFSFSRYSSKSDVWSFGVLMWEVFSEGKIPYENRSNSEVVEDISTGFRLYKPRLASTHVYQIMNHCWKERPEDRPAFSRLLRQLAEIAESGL

[8] = target: Tyrosine-protein kinase Srms (Homo sapiens) (UniProt Q9H3Y6); settings: Compound concentration 1000.0 nM
[9] = target: T3, Serine/threonine-protein kinase Sgk2 (Homo sapiens) (UniProt Q9HBY8); settings: Compound concentration 1000.0 nM
T3 sequence (whole entry): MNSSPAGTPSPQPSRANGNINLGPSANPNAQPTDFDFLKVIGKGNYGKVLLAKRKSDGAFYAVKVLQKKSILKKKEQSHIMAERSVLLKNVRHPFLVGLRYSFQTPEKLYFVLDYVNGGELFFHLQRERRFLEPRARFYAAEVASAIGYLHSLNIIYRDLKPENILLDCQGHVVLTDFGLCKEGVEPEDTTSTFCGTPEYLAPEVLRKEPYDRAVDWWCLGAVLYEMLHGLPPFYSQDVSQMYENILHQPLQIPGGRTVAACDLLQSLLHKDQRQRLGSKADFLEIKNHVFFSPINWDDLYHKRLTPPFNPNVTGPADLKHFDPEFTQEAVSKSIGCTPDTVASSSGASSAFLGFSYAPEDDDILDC

[10] = test system: Fibroblast growth factor receptor 3 (Homo sapiens), P22607 [G697C]; settings: Compound concentration 1000.0 nM
[11] = target: 5-hydroxytryptamine receptor 1E (Homo sapiens) (UniProt P28566); settings: Compound concentration 10.0 uM
[12] = target: T4, Dual specificity mitogen-activated protein kinase kinase 3 (Homo sapiens) (UniProt P46734); settings: Compound concentration 1000.0 nM
T4 sequence (whole entry): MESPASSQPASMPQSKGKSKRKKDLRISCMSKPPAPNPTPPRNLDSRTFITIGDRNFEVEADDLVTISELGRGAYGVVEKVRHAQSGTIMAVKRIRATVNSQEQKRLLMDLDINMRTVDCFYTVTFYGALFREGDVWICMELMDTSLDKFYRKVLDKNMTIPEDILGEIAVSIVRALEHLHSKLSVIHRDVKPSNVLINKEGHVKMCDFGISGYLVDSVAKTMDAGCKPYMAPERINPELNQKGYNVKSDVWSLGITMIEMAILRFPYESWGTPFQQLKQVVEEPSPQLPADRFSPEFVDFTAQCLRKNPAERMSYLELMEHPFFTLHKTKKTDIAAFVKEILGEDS

[13] = target: Calcium/calmodulin-dependent protein kinase type 1 (Homo sapiens) (UniProt Q14012); settings: Compound concentration 1000.0 nM
[14] = test system: Epidermal growth factor receptor (Homo sapiens), P00533 [L861Q]; settings: Compound concentration 1000.0 nM
[15] = target: Phosphatidylinositol 4,5-bisphosphate 3-kinase catalytic subunit delta isoform (Homo sapiens) (UniProt O00329); settings: Compound concentration 1000.0 nM
[16] = test system: Mast/stem cell growth factor receptor Kit (Homo sapiens), P10721 [V559D]; settings: Compound concentration 1000.0 nM
[17] = target: Cyclin-dependent kinase 4 (Homo sapiens) (UniProt P11802); settings: Compound concentration 1000.0 nM

Phosphatidylinositol 4,5-bisphosphate 3-kinase catalytic subunit alpha isoform (Homo sapiens), P42336 [H1047Y], sequence (P42336 whole entry H1047Y, canonical isoform): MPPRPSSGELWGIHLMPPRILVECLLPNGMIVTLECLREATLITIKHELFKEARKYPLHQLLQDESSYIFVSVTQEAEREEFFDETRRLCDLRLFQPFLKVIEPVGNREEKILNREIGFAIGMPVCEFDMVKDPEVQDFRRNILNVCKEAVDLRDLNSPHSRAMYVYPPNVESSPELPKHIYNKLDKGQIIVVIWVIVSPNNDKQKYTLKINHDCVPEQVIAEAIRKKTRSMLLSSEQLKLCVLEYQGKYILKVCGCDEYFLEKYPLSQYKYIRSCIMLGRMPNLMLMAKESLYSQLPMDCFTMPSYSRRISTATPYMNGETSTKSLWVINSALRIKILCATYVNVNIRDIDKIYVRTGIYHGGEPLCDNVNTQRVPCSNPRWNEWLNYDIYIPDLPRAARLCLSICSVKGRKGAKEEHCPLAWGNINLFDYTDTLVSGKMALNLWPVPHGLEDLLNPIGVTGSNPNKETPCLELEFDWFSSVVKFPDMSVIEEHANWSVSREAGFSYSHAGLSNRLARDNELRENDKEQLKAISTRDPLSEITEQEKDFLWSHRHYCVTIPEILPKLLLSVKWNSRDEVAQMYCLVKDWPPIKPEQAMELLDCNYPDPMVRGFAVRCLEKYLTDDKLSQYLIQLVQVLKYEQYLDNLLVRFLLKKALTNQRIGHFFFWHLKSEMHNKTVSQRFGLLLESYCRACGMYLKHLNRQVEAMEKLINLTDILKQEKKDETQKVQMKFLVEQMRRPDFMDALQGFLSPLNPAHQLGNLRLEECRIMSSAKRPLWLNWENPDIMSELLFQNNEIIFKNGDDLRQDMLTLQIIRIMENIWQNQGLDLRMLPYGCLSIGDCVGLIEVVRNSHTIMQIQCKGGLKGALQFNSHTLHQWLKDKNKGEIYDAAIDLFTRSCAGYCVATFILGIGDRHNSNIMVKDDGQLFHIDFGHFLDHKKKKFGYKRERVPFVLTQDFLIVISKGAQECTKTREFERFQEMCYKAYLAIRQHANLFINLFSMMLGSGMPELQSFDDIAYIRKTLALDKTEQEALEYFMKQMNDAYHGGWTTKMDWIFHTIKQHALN
Angiopoietin-1 receptor (Homo sapiens), sequence (Q02763 whole entry): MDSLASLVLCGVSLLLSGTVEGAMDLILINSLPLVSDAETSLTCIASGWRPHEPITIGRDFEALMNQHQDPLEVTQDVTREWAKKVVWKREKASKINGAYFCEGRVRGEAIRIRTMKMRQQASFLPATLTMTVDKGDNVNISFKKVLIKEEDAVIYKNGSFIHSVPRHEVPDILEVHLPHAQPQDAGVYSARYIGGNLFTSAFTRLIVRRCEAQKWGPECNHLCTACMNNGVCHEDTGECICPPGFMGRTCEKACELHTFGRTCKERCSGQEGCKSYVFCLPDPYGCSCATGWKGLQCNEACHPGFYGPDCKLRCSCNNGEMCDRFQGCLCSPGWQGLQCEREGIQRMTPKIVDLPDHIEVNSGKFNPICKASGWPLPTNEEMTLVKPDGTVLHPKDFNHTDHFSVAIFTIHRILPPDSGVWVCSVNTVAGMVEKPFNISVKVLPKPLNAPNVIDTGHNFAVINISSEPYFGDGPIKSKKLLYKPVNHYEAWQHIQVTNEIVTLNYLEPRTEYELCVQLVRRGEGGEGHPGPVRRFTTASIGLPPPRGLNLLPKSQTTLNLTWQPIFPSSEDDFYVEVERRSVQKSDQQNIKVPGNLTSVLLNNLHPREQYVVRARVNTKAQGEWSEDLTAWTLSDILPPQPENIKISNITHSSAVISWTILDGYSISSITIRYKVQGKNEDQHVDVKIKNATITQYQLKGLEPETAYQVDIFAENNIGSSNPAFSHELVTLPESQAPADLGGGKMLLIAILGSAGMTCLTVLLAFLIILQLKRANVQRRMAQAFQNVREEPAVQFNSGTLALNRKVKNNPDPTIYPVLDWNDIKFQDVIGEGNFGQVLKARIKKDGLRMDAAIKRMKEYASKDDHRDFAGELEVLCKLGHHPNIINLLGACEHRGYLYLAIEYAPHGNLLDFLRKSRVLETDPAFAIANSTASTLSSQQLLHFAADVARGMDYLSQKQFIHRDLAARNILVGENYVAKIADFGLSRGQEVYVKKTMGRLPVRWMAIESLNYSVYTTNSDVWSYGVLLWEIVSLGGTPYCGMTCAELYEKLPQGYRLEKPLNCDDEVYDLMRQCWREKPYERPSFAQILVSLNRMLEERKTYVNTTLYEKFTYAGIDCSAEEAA
Non-receptor tyrosine-protein kinase TYK2 (Homo sapiens), sequence (P29597 whole entry): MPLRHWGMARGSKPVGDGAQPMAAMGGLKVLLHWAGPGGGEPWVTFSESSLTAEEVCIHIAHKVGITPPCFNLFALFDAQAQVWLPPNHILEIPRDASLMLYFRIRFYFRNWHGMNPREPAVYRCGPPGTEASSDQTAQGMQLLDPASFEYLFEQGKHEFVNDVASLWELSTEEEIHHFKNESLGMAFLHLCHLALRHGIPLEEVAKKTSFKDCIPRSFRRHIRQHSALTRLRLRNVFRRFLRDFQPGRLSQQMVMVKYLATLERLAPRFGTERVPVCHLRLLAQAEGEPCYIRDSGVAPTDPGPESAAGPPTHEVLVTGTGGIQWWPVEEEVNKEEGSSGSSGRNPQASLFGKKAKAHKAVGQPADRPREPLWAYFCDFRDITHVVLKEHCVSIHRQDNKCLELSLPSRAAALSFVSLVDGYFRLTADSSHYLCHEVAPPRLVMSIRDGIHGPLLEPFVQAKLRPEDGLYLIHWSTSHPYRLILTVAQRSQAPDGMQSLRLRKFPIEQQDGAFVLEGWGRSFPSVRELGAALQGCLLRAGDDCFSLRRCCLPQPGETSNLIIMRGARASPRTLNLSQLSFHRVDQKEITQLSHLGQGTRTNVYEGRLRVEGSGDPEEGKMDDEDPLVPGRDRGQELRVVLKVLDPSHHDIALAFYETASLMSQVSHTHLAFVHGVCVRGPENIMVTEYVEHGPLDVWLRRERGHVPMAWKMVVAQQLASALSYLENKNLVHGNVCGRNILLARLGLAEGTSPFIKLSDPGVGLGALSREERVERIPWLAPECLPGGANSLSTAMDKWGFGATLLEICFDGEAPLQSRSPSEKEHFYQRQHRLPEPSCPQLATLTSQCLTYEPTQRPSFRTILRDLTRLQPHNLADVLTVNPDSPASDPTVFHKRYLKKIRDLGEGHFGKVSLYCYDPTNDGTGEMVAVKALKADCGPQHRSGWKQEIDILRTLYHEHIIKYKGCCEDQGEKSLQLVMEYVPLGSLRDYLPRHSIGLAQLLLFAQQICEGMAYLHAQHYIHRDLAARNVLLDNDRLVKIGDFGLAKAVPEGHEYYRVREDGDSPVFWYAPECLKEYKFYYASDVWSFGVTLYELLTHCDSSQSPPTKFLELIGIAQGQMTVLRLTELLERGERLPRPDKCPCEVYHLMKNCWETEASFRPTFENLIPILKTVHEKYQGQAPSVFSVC
Mast/stem cell growth factor receptor Kit (Homo sapiens), P10721 [V559D], sequence (P10721 whole entry V559D): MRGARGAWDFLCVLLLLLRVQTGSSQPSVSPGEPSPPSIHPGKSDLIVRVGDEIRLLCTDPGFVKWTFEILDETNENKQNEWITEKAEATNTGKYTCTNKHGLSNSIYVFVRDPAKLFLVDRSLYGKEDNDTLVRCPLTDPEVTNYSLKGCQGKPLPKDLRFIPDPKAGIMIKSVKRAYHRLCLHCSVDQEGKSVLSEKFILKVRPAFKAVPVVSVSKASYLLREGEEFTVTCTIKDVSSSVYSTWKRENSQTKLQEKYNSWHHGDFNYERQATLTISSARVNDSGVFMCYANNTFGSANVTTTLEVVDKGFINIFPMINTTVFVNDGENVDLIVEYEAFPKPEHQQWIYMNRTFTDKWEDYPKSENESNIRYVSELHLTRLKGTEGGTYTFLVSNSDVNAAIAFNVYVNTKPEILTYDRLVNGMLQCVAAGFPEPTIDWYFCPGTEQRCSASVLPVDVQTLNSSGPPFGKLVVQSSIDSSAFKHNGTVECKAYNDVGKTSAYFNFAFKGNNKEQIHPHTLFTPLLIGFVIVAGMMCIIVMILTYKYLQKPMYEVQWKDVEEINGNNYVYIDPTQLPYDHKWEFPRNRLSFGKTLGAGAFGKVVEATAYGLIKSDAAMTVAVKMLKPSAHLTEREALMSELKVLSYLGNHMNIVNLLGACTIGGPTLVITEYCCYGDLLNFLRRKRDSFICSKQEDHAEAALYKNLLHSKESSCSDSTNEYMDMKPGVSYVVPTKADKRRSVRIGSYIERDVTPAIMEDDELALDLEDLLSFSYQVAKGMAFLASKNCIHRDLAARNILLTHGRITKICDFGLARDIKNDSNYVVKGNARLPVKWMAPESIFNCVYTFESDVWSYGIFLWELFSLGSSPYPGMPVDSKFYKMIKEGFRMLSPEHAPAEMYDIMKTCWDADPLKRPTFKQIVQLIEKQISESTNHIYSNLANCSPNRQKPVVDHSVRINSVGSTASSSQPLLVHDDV
Calcium/calmodulin-dependent protein kinase type 1 (Homo sapiens), sequence (Q14012 whole entry, looked up): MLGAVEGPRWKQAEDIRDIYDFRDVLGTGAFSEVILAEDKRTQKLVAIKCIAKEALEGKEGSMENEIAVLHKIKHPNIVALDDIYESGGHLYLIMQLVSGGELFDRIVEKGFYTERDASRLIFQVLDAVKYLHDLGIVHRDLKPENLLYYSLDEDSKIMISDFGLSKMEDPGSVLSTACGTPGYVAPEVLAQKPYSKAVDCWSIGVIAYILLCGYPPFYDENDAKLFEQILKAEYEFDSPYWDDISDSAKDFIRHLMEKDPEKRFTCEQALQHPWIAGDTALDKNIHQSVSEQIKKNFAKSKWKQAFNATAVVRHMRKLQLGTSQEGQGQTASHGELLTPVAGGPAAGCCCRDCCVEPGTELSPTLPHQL
5-hydroxytryptamine receptor 1E (Homo sapiens), sequence (P28566 whole entry): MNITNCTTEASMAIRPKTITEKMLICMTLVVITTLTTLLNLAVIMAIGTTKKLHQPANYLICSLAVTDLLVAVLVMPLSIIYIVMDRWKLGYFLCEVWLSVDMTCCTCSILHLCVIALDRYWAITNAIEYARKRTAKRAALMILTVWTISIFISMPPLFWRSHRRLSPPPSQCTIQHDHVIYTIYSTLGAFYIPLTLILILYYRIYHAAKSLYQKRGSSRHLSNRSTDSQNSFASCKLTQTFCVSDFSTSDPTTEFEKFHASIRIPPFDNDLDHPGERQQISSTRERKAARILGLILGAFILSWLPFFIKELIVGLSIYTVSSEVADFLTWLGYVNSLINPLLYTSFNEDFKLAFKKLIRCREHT

Cc1nc(C2CCN(C(=O)c3ccc(OC(F)(F)F)cc3N)CC2)c2ncc(N3CCN(C)CC3)cc2n1 [BAY-693]
inactive: residual activity [1] 69% | residual activity [2] 81% | residual activity [3] 100% | residual activity [4] 100% | residual activity [5] 100% | residual activity [6] 88% | residual activity [7] 89% | residual activity [8] 100% | residual activity [9] 94% | residual activity [10] 100% | inhibition [11] -9.94% | residual activity [12] 98% | residual activity [13] 100% | residual activity [14] 100% | residual activity [15] 78% | residual activity [16] 93% | residual activity [17] 100%

CN1CCN(c2cnc3c(C4CCN(C(=O)c5ccc(OC(F)(F)F)cc5N)CC4)ncnc3c2)CC1 [BAY-885]
inactive: residual activity [1] 92% | residual activity [2] 74% | residual activity [3] 100% | residual activity [4] 100% | residual activity [5] 100% | residual activity [6] 100% | residual activity [7] 100% | residual activity [8] 100% | residual activity [9] 92% | residual activity [10] 100% | inhibition [11] 14.2% | residual activity [12] 94% | residual activity [13] 100% | residual activity [14] 100% | residual activity [15] 86% | residual activity [16] 99% | residual activity [17] 100%
